The source of these data is patent US8796256B2 (Janssen Pharmaceutica NV, priority 2010, dated 2014).

pEC50: −log10 of the molar value.

As usually defined, the pEC50 is −log10 of the EC50, conventionally taken in molar units. A high value points to a small EC50.

The assay concerns the target T1, ERR1 (also known as ERR-α or ERR-1) (Homo sapiens, UniProt P11474).
T1 sequence (P11474 193-421 limits assumed): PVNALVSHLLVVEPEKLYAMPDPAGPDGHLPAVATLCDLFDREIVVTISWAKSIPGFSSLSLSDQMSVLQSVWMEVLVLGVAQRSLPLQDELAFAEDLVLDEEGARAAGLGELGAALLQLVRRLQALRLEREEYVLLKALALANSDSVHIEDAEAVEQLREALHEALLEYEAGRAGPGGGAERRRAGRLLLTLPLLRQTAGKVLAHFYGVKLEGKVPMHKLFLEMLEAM
The experiment in a line: TR-FRET assay (disruption of co-activator peptide binding to ERR1 LBD). The following applies: 6 nM 6His-ERR1LBD, 6 nM GST-SRC-2 peptide; average of 3 independent experiments. In kind it is biochemical. On the procedure:
Time-Resolved Fluorescence Resonance Energy Transfer (TR-FRET) experiments were performed to examine the functional response of ERR1 (also known as ERR-α or ERR-1) ligands. The TR-FRET assay described herein relied on the conformation of ERR1 for binding to a co-activator peptide: when a test compound binds to ERR1 and alters its conformation, it can disrupt the binding of the co-activator peptide. The components of this homogeneous secondary assay included: the ^6His-tagged-ERR1LBD, a GST-labeled-hSRC2 co-activator polypeptide and a fluorescent donor/acceptor pair from CIS bio international htrf/bioassays (Bedford, Mass.) using both an α-GST Europium (Eu) Cryptate label and an α^6His-XL665 (allophycocyanin) fluorophore.
For TR-FRET measurements, the reaction was buffered in 25 mM Tris pH 8, 2.5 mM Hepes, 20 mM KCl, 1 mM DTT, and 0.05 mg/mL BSA (delipidated). The final concentrations of reagents were 6 nM of ERR1LBD, 6 nM GST-SRC-2 peptide, 30 nM Eu cryptate, and 7.5 nM a^6His-XL665. Reactions were allowed to reach equilibrium at 25° C. for 4-18 h before collecting data on the Analyst from LJL Biosystems (Molecular Devices Sunnyvale, Calif.). […] Dose response curves were fitted using a hyperbolic equation and the data reported is the average of 3 independent experiments.
On the technique in general: Time-resolved FRET reads energy transfer from a long-lived donor to a nearby acceptor.
In the case of `O=C1S/C(=C\c2ccc3c(cnn3Cc3ccc(Cl)cc3C(F)(F)F)c2)C(=O)N1C[C@@H]1CN2CCC[C@H]2CO1` [Compound 203, (5Z)-5-({1-[4-Chloro-2-(trifluoromethyl)benzyl]-1H-indazol-5-yl}methylidene)-3-[(3S,8aS)-hexahydro-1H-pyrrolo[2,1-c] [1,4]oxazin-3-ylmethyl]-1,3-thiazolidine-2,4-dione], the pEC50 is 7.28.
Under `O=C1S/C(=C\c2ccc3c(cnn3Cc3ccc(Cl)cc3C(F)(F)F)c2)C(=O)N1Cc1nccs1` [Compound 92, (5Z)-5-({1-[4-Chloro-2-(trifluoromethyl)benzyl]-1H-indazol-5-yl}methylidine)-3-(1,3-thiazol-2-ylmethyl)-1,3-thiazolidine-2,4-dione] stands 7.62; under `O=C1S/C(=C\c2ccc3c(cnn3Cc3ccc(Cl)cc3C(F)(F)F)c2)C(=O)N1CCN1CC(F)(F)C1` [Compound 75, (5Z)-5-({1-[4-Chloro-2-(trifluoromethyl)benzyl]-1H-indazol-5-yl}methylidene)-3-[2-(3,3-difluoroazetidin-1-yl)ethyl]-1,3-thiazolidine-2,4-dione], 6.90.
The result for `O=C1S/C(=C\c2ccc3c(ccn3Cc3ccc(Cl)cc3C(F)(F)F)c2)C(=O)N1CCN1CCOCC1` [Compound 254, (5Z)-5-({1-[4-Chloro-2-(trifluoromethyl)benzyl]-1H-indol-5-yl}methylidene)-3-(2-morpholin-4-ylethyl)-1,3-thiazolidine-2,4-dione] reads 6.49.
Turning to `O=C1S/C(=C\c2ccc3c(cnn3Cc3ccc(C(F)(F)F)cc3C(F)(F)F)c2)C(=O)N1C[C@@H]1CCCN1` [Compound 83, (5Z)-5-({1-[2,4-Bis(trifluoromethyl)benzyl]-1H-indazol-5-yl}methylidene)-3-[(2S)-pyrrolidin-2-ylmethyl]-1,3-thiazolidine-2,4-dione], the negative-log EC50 (pEC50) is 7.09.
The result for `O=C(O)C(C1CCOCC1)N1C(=O)S/C(=C\c2ccc3c(cnn3Cc3ccc(Cl)cc3C(F)(F)F)c2)C1=O` (centres unmarked) [Compound 219, [(5Z)-5-({1-[4-Chloro-2-(trifluoromethyl)benzyl]-1H-indazol-5-yl}methylidene)-2,4-dioxo-1,3-thiazolidin-3-yl](tetrahydro-2H-pyran-4-yl)acetic acid] reads 7.38; that for `O=C1S/C(=C\c2ccc3c(cnn3Cc3ccc(Cl)cc3C(F)(F)F)c2)C(=O)N1CCN1CC[C@H](O)C1` [Compound 1], 6.89; that for `Cn1cnc(CC(C(=O)O)N2C(=O)S/C(=C\c3ccc4c(cnn4Cc4ccc(Cl)cc4C(F)(F)F)c3)C2=O)c1` (centres unmarked) [Compound 223, 2-[(5Z)-5-({1-[4-Chloro-2-(trifluoromethyl)benzyl]-1H-indazol-5-yl}methylidene)-2,4-dioxo-1,3-thiazolidin-3-yl]-3-(1-methyl-1H-imidazol-4-yl)propanoicacid], 7.26.
Under `CCN1CC[C@@H](N2C(=O)S/C(=C\c3ccc4c(cnn4Cc4ccc(Cl)cc4C(F)(F)F)c3)C2=O)[C@H](F)C1` [Compound 386, (5Z)-5-({1-[4-Chloro-2-(trifluoromethyl)benzyl]-1H-indazol-5-yl}methylidene)-3-[(3R,4R)-1-ethyl-3-fluoropiperidin-4-yl]-1,3-thiazolidine-2,4-dione] stands 7.38.
The result for `COC[C@@H](N)CN1C(=O)S/C(=C\c2ccc3c(cnn3Cc3ccc(Cl)cc3C(F)(F)F)c2)C1=O` [Compound 168, (5Z)-3-[(2S)-2-Amino-3-methoxypropyl]-5-({1-[4-chloro-2-(trifluoromethyl)benzyl]-1H-indazol-5-yl}methylidene)-1,3-thiazolidine-2,4-dione] reads 7.54; that for `COCCN1C(=O)S/C(=C\c2ccc3c(cnn3Cc3ccc(Cl)cc3C(F)(F)F)c2)C1=O` [Compound 123, (5Z)-5-({1-[4-Chloro-2-(trifluoromethyl)benzyl]-1H-indazol-5-yl}methylidene)-3-(2-methoxyethyl)-1,3-thiazolidine-2,4-dione], 7.35.
`O=C1S/C(=C\c2ccc3c(cnn3Cc3ccc(C(F)(F)F)cc3C(F)(F)F)c2)C(=O)N1C[C@@H]1CNCCO1` [Compound 195, (5Z)-5-({1-[2,4-Bis(trifluoromethyl)benzyl]-1H-indazol-5-yl}methylidene)-3-[(2S)-morpholin-2-ylmethyl]-1,3-thiazolidine-2,4-dione] showed a negative logarithm of the EC50 (pEC50) of 7.21.
As for `O=C1S/C(=C\c2ccc3c(cnn3Cc3ccc(Cl)cc3C(F)(F)F)c2)C(=O)N1Cc1cscn1` [Compound 93], the negative-log EC50 (pEC50) is 7.85.
Under `CN(C)CCN1C(=O)S/C(=C\c2ccc3c(cnn3Cc3ccc(F)cc3C(F)(F)F)c2)C1=O` [Compound 5, (5Z)-3-[2-(Dimethylamino)ethyl]-5-[(1-{[4-fluoro-2-(trifluoromethyl)phenyl]methyl}-1H-indazol-5-yl)methylidene]-1,3-thiazolidine-2,4-dione] stands 6.74.
In turn, `O=C(NC1(CN2C(=O)S/C(=C\c3ccc4c(cnn4Cc4ccc(C(F)(F)F)cc4C(F)(F)F)c3)C2=O)CCOCC1)C1CC1` [Compound 311, N-(4-{[(5Z)-5-({1-[2,4-Bis(trifluoromethyl)benzyl]-1H-indazol-5-yl}methylidene)-2,4-dioxo-1,3-thiazolidin-3-yl]methyl}tetrahydro-2H-pyran-4-yl) cyclopropanecarboxamide] showed a pEC50 of 6.88.
Compound `Cc1nn(Cc2ccc(Cl)cc2C(F)(F)F)c2ccc(/C=C3\SC(=O)N(NS(C)(=O)=O)C3=O)cc12` [Compound 365, N-[(5Z)-5-({1-[4-Chloro-2-(trifluoromethyl)benzyl]-3-methyl-1H-indazol-5-yl}methylidene)-2,4-dioxo-1,3-thiazolidin-3-yl]methanesulfonamide] had a pEC50 of 7.64.
For the compound `CC(C)N1CC[C@@H](N2C(=O)S/C(=C\c3ccc4c(cnn4Cc4ccc(Cl)cc4C(F)(F)F)c3)C2=O)[C@H](F)C1` (relative stereo) [Compound 328, (5Z)-5-({1-[4-Chloro-2-(trifluoromethyl)benzyl]-1H-indazol-5-yl}methylidene)-3-[trans-3-fluoro-1-(1-methylethyl)piperidin-4-yl]-1,3-thiazolidine-2,4-dione], the pEC50 was 6.82.
Under `O=C1S/C(=C\c2ccc3c(cnn3Cc3ccc(Cl)cc3C(F)(F)F)c2)C(=O)N1C1CCNCC1(F)F` (centres unmarked) [Compound 345, (5Z)-5-({1-[4-Chloro-2-(trifluoromethyl)benzyl]-1H-indazol-5-yl}methylidene)-3-(3,3-difluoropiperidin-4-yl)-1,3-thiazolidine-2,4-dione] stands 7.74; under `O=C1S/C(=C\c2ccc3c(cnn3Cc3ccc(Cl)cc3C(F)(F)F)c2)C(=O)N1C[C@@H]1CNCCO1` [Compound 183, (5Z)-5-({1-[4-Chloro-2-(trifluoromethyl)benzyl]-1H-indazol-5-yl}methylidine)-3-[(2S)-morpholin-2-ylmethyl]-1,3-thiazolidine-2,4-dione], 6.77.
In the case of `CC(C)(C)OC(=O)COCCN1C(=O)S/C(=C\c2ccc3c(cnn3Cc3ccc(Cl)cc3C(F)(F)F)c2)C1=O` [Compound 236, tert-Butyl {2-[(5Z)-5-({1-[4-chloro-2-(trifluoromethyl)benzyl]-1H-indazol-5-yl}methylidene)-2,4-dioxo-1,3-thiazolidin-3-yl]ethoxy}acetate], the negative logarithm of the EC50 (pEC50) was 6.95.
